2 compounds from paper PMC7221592, “Synthesis and Molecular Modelling Studies of New 1,3-Diaryl-5-Oxo-Proline Derivatives as Endothelin Receptor Ligands” (Molecules, 2020) can be followed below.

The experiment deals with T1, ETA receptor (ETAR) (Homo sapiens, UniProt P25101).
T1 construct: gene EDNRA
T1 sequence (P25101 21-427): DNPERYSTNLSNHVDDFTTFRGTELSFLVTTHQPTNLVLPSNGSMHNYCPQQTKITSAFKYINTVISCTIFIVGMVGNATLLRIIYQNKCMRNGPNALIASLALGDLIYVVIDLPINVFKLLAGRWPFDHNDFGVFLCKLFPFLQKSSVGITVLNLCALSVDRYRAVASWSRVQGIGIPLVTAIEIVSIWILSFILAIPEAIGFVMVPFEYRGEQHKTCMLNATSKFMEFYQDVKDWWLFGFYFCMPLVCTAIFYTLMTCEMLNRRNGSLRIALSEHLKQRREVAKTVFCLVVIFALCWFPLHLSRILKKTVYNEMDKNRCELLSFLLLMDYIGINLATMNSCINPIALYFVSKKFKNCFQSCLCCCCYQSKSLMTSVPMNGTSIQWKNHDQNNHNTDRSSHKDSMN
The experiment in a line: […]ET-1 radioligand displacement, recombinant human ETA in CHO-K1 cells. In kind it is cell-based. The settings on record: read-out: ETAh 10^-5 M ^a.

Square brackets hold non-standard residues; d marks the D form. Peptide text beside a SMILES is read from it.

For the compound `COc1ccc(CN2C(=O)C[C@H](c3ccc4c(c3)OCO4)[C@H]2C(=O)O)cc1` (racemic) [31h, (±)-trans 3-(1,3-Benzodioxol-5-yl)-1-[(4-methoxyphenyl)methyl]-5-oxo-proline], the Ki was determined as 3300 ± 1100 nM.

On to `CC(C)C[C@@H]1NC(=O)[C@@H](C(C)C)NC(=O)[C@@H]2CCCN2C(=O)[C@@H](CC(=O)O)NC(=O)[C@@H](Cc2c[nH]c3ccccc23)NC1=O` [BQ-123] (cyclo(L[dW][dD]P[dV])), for which the Ki was determined as 5.4 ± 0.8 nM.
